Publication doi:10.1101/2022.07.25.501471v5 (biorxiv, 2023)

How the values were obtained:
CreTPT3 (His-CreTPT3) = target: T1, CreTPT3 (His-CreTPT3) (Chlamydomonas reinhardtii, UniProt A8HN02); test: inhibition of […]Pi uptake into proteoliposomes; assay type: cell-based; details: competitive; 0.25 mM external Pi, 30 mM Pi inside, competitor 0.05-5 mM, 4 min
T1 sequence (A8HN02 61-406): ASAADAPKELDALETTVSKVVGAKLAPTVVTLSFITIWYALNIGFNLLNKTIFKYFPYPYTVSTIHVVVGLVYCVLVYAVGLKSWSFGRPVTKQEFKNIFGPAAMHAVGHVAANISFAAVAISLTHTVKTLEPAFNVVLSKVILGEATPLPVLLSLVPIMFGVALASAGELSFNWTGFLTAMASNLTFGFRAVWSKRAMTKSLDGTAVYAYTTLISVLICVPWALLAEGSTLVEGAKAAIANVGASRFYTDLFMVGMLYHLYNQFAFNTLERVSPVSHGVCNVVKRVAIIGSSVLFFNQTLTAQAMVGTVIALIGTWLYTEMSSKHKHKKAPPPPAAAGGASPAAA

CreTPT2 (His-CreTPT2) = target: T2, CreTPT2 (His-CreTPT2) (Chlamydomonas reinhardtii, UniProt A0A2K3DMX1); test: inhibition of […]Pi uptake into proteoliposomes; assay type: cell-based; details: competitive; 0.25 mM external Pi, 30 mM Pi inside, competitor 0.05-5 mM, 4 min
T2 sequence (A0A2K3DMX1 71-401): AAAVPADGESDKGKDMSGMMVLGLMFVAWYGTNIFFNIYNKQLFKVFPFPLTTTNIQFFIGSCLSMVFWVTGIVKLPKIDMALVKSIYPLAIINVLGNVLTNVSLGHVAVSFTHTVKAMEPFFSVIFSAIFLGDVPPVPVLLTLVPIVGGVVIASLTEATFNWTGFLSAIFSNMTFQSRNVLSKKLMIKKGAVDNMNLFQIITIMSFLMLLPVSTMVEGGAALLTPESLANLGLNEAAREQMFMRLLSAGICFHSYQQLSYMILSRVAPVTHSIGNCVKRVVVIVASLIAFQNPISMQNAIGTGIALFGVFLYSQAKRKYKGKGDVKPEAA

Structure (SMILES) | Ki (CreTPT3 (His-CreTPT3)) | Ki (CreTPT2 (His-CreTPT2))
O=C(CO)COP(=O)(O)O [DHAP] | 570 ± 13 µM | 710 ± 120 µM
O=C(O)[C@H](O)COP(=O)(O)O [3-PGA] | 790 ± 122 µM | 780 ± 190 µM
